# Test results taken from PMC2952885 (ChemMedChem, 2009).
# Molecular target: PDE7A1 catalytic domain (residues 130–482) (Homo sapiens, UniProt Q13946)
# Assay: [3H]cAMP hydrolysis radioassay
# Assay type: biochemical
# Sequence of PDE7A1 catalytic domain (residues 130–482) (Q13946 130-482): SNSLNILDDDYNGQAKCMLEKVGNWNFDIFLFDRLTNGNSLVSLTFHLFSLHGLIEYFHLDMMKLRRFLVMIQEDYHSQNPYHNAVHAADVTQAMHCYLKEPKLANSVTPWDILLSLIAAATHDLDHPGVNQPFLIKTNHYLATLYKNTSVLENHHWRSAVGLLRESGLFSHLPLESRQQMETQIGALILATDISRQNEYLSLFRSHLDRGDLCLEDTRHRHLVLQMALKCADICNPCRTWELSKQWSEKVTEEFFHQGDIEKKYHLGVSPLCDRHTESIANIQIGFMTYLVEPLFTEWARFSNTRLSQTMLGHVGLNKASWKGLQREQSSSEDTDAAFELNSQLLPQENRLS
row,SMILES,IC50 [µM]
1,"CC(C)Cn1c(=O)n(C)c(=O)c2[nH]cnc21 [IBMX, reference compound]",8.1 ± 0.4
2,"COc1ccc(C2CNC(=O)C2)cc1OC1CCCC1 (centres unmarked) [Rolipram, reference compound]",129 ± 10
3,"CSc1nc2ccsc2c(=O)n1-c1ccccc1 [compound 35, 2-Methylthio-4-oxo-3-phenyl-3,4-dihydrothieno[3,2-d]pyrimidine]",~10
4,"CSc1nc2ccsc2c(=O)n1-c1c(F)cccc1F [compound 36, 3-(2,6-Difluorophenyl)-2-methylthio-4-oxo-3,4-dihydrothieno-[3,2-d]pyrimidine]",0.8 ± 0.2
5,"CSc1nc2c(sc3ccccc32)c(=O)n1-c1c(F)cccc1F [compound 39, 3-(2,6-Difluorophenyl)-2-methylthio-4-oxo-3,4-dihydrobenzo-[4,5]thieno[3,2-d]pyrimidine]",0.41 ± 0.03
